Assay results as given in ChEMBL document CHEMBL5390202, “Cannabinoid Receptor Type II Ligands from Sandalwood Oil and Synthetic α-Santalol Derivatives” (J Nat Prod, 2023).
Active and inactive are the calls of the source. No cut-off for these calls is given here.

Experiments:
Cannabinoid receptor 2 [1] = target: T1, Cannabinoid receptor 2 (Homo sapiens, UniProt P34972); assay: Displacement of [3H]-CP55940 from human CB2 receptor expressed in CHO cell membranes assessed as inhibition constant incubated for 1 hr by TopCount liquid scintillation counting analysis; parameters: species or system Membrane
Cannabinoid receptor 2 [2] = target: T1, Cannabinoid receptor 2; assay: Displacement of [3H]-CP55940 from human CB2 receptor expressed in CHO cell membranes at 10 uM incubated for 1 hr by TopCount liquid scintillation counting analysis relative to control; details: Membrane
Cannabinoid receptor 2 [3] = target: T1, Cannabinoid receptor 2; assay: Agonist activity at CB2 receptor (unknown origin) expressed in human SH-SY5Y cells assessed as increase in intracellular calcium flux at 0.032 to 0.1 uM incubated for 3 mins in presence of 10 uM raloxifene by Fluo-4AM dye based fluorescence analysis; assay type: functional, cell-based; details: dose 0.032-0.1 µM
Cannabinoid receptor 2 [4] = target: T1, Cannabinoid receptor 2; assay: Agonist activity at CB2 receptor (unknown origin) expressed in human SH-SY5Y cells assessed as increase in intracellular calcium flux at 0.032 to 0.1 uM incubated for 3 mins by Fluo-4AM dye based fluorescence analysis; assay type: functional, cell-based; details: filed as agonist, dose 0.032-0.1 µM
Cannabinoid receptor 2 [5] = target: T1, Cannabinoid receptor 2; assay: Potency index, ratio of alpha-santalol Ki to test compound Ki for displacement of [3H]-CP55940 from human CB2 receptor expressed in CHO cell membranes incubated for 1 hr by TopCount liquid scintillation counting analysis; details: Membrane, filed as agonist
Cannabinoid receptor 2 [6] = target: T1, Cannabinoid receptor 2; assay: Agonist activity at CB2 receptor (unknown origin) expressed in human SH-SY5Y cells assessed as increase in intracellular calcium flux at 0.032 to 0.1 uM incubated for 3 mins in presence of 60 nM AM-630 by Fluo-4AM dye based fluorescence analysis; assay type: functional, cell-based; details: dose 0.032-0.1 µM
[7] = target: Cannabinoid receptor 1 (Homo sapiens) (UniProt P21554); assay: Displacement of [3H]-CP55940 from human CB1 receptor expressed in CHO cell membranes at 10 uM incubated for 1 hr by TopCount liquid scintillation counting analysis relative to control; details: Membrane
Cannabinoid receptor 2 [8] = target: T1, Cannabinoid receptor 2; assay: Agonist activity at CB2 receptor (unknown origin) expressed in human SH-SY5Y cells assessed as increase in intracellular calcium flux at 3.2 to 10 uM incubated for 3 mins in presence of 10 uM raloxifene by Fluo-4AM dye based fluorescence analysis; assay type: functional, cell-based; details: dose 3.2-10 µM
Cannabinoid receptor 2 [9] = target: T1, Cannabinoid receptor 2; assay: Agonist activity at CB2 receptor (unknown origin) expressed in human SH-SY5Y cells assessed as increase in intracellular calcium flux at 3.2 to 10 uM incubated for 3 mins in presence of 60 nM AM-630 by Fluo-4AM dye based fluorescence analysis; assay type: functional, cell-based; details: dose 3.2-10 µM
Cannabinoid receptor 2 [10] = target: T1, Cannabinoid receptor 2; assay: Agonist activity at CB2 receptor (unknown origin) expressed in human SH-SY5Y cells assessed as increase in intracellular calcium flux at 3.2 to 10 uM incubated for 3 mins by Fluo-4AM dye based fluorescence analysis; assay type: functional, cell-based; details: filed as agonist, dose 3.2-10 µM
D(2) dopamine receptor = D(2) dopamine receptor (Rattus norvegicus, UniProt P61169); assay: Displacement of [3H]-raclopride from rat brain striatum dopamine D2 receptor incubated for 60 mins by liquid scintillation counting analysis; assay type: tissue-based
[11] = target: 5-hydroxytryptamine receptor 2A (Rattus norvegicus, UniProt P14842); assay: Displacement of [3H]-ketanserin from rat brain cortex 5-HT2A receptor incubated for 60 mins by liquid scintillation counting analysis; assay type: tissue-based
Chain of 5-hydroxytryptamine receptor 2A (P14842 whole entry): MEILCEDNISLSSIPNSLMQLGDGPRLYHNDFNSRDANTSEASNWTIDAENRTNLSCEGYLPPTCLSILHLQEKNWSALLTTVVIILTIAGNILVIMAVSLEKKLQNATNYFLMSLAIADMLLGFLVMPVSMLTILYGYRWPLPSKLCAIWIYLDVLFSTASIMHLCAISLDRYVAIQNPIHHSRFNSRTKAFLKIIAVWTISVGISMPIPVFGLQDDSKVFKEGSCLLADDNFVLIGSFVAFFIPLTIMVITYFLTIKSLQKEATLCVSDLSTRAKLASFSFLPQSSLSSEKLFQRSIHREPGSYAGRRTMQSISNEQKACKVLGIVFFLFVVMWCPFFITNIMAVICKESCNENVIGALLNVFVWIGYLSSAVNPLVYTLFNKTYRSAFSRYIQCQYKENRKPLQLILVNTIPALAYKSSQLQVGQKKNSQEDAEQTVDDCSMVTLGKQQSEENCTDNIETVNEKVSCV

T1 sequence (P34972 whole entry): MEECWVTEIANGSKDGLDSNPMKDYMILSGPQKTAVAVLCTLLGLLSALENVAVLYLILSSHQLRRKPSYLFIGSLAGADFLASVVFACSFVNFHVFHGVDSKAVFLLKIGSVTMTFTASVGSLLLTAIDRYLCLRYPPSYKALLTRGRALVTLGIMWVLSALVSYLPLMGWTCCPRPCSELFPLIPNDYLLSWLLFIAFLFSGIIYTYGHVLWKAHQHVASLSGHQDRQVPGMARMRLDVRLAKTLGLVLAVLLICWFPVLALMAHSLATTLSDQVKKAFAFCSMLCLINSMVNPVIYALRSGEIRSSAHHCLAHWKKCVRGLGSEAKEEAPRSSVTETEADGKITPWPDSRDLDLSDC
Chain of Cannabinoid receptor 1 (Homo sapiens) (P21554 whole entry): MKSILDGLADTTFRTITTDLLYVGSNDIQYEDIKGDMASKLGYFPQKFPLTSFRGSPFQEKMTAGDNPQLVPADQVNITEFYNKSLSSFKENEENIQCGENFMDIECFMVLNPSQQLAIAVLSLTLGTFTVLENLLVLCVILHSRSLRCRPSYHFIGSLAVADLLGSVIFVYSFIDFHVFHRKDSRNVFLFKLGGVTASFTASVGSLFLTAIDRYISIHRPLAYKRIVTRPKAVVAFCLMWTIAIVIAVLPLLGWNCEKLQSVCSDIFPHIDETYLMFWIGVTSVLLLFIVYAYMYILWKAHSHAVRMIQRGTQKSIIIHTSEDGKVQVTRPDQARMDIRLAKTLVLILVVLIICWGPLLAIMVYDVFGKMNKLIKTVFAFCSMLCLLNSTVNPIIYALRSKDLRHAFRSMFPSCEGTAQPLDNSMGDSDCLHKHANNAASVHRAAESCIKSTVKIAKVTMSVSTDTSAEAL
Chain of D(2) dopamine receptor (P61169 whole entry): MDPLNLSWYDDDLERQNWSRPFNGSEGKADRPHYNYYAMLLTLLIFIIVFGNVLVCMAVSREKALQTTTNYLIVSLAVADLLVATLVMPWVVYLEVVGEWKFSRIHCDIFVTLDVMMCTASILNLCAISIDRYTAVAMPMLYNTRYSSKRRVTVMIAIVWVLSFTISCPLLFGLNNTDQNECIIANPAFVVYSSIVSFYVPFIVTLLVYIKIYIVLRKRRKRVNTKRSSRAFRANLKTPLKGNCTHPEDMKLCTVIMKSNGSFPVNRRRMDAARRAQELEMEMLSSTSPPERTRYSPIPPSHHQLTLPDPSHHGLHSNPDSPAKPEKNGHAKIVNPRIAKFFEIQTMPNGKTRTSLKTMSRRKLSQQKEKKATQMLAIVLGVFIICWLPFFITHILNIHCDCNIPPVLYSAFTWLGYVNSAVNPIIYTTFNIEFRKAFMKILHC

O=C(c1ccc(OCCN2CCCCC2)cc1)c1c(-c2ccc(O)cc2)sc2cc(O)ccc12 [RALOXIFENE]
Ki (Cannabinoid receptor 2 [1]): ~0.24 µM

COc1ccc(C(=O)c2c(C)n(CCN3CCOCC3)c3cc(I)ccc23)cc1
Activity (Cannabinoid receptor 2 [2]; filed as antagonist): 93%

C/C(=C/CC[C@]1(C)[C@@H]2C[C@@H]3[C@H](C2)[C@@]31C)CN(CCO)CCO
Activity (Cannabinoid receptor 2 [2]): 1.72%

C/C(=C/CC[C@]1(C)[C@@H]2C[C@@H]3[C@H](C2)[C@@]31C)COC(=O)CCC(=O)O
Activity (Cannabinoid receptor 2 [2]): 5.82%

C/C(=C/CC[C@]1(C)[C@@H]2C[C@@H]3[C@H](C2)[C@@]31C)CN1CCCC1
Activity (Cannabinoid receptor 2 [2]): 8.03%

C/C(=C/CC[C@]1(C)[C@H]2C[C@@H]3[C@@H](C2)[C@]31C)CN1CCN(C)CC1
Activity (Cannabinoid receptor 2 [3]): inactive | Activity (Cannabinoid receptor 2 [4]): Active | Activity (Cannabinoid receptor 2 [2]; filed as agonist): 82.1% | Ratio Ki (Cannabinoid receptor 2 [5]): 10.6 | Activity (Cannabinoid receptor 2 [6]): inactive | Ki (Cannabinoid receptor 2 [1]): 0.99 µM | Activity [7]: < 20%

C/C(=C/CC[C@]1(C)[C@@H]2C[C@@H]3[C@H](C2)[C@@]31C)CN(C)C
Activity (Cannabinoid receptor 2 [2]): 2.94%

C/C(=C/CC[C@]1(C)[C@@H]2C[C@@H]3[C@H](C2)[C@@]31C)CNNC(=O)c1ccc(N(C)C)cc1
Activity (Cannabinoid receptor 2 [2]): 26.5%

C/C(=C/CC[C@]1(C)[C@@H]2C[C@@H]3[C@H](C2)[C@@]31C)CN1CCOCC1
Activity (Cannabinoid receptor 2 [2]): 21.3%

C/C(=C/CC[C@]1(C)[C@@H]2C[C@@H]3[C@H](C2)[C@@]31C)CNNC(=O)c1ccccc1
Activity (Cannabinoid receptor 2 [2]): 26.9%

C/C(=C/CC[C@]1(C)[C@@H]2C[C@@H]3[C@H](C2)[C@@]31C)CN1CCCCC1
Activity (Cannabinoid receptor 2 [2]): 16.8%

C/C(=C/CC[C@]1(C)[C@H]2CC3[C@H](C2)[C@]31C)CO
Activity (Cannabinoid receptor 2 [8]): inactive | Activity (Cannabinoid receptor 2 [9]): inactive | Activity (Cannabinoid receptor 2 [10]): Active | Activity (Cannabinoid receptor 2 [2]; filed as agonist): 62.5% | IC50 (D(2) dopamine receptor): 75 µM | IC50 [11]: 180 µM | Ki (Cannabinoid receptor 2 [1]): 10.5 µM | Activity [7]: < 16%

C=C1[C@@H]2CC[C@@H](C2)[C@@]1(C)CC/C=C(/C)CO
Activity (Cannabinoid receptor 2 [8]): inactive | Activity (Cannabinoid receptor 2 [9]): inactive | Activity (Cannabinoid receptor 2 [10]): Active | Activity (Cannabinoid receptor 2 [2]; filed as agonist): 55.8% | Ki (Cannabinoid receptor 2 [1]): 8.19 µM | Activity [7]: < 16%
